In US20030220329A1, “Method of improving beta-adrenergic receptor function” (DUKE UNIVERSITY, priority 1999, published 2003):
Marks after values point to notes of the source that are not given here.

Key:
[1] = Fasting plasma glucose, insulin and leptin; assay type: in vivo, B6 mice; conditions: for Fasting plasma glucose: termination of / throughout the study
Protocol: (§1) Animals and Diets. Seventy-five 4-week old B6 male mice were obtained from Jackson Laboratories (Bar Harbor, Me.). The animals were housed 5 per cage in a temperature controlled (22° C.) room with a 12 hour light/dark cycle (lights off at 19:00). The HF and low fat (LF) experimental diets were manufactured by Research Diets (New Brunswick, N.J.), and contain 58% and 11% of calories from fat, respectively. The composition of these diets have been described in detail elsewhere (Surwit et al. Metabolism 44:645-651 (1995)). A group of 60 mice were fed the HF diet for the first four weeks of the study; the remaining 15 mice were fed the LF diet. The mice assigned to the LF diet were maintained on this diet throughout the study as a reference group of lean control mice. At week 4, all HF-fed mice were assigned to 4 groups of 15 mice each. The first group remained on the HF diet throughout the study as the “obese” control group. The remaining 3 groups of mice were fed the HF diet containing either the β3AR agonist CL316,243 (CL), diazoxide (Dz) or the combination of the two compounds (CLDz). The CL concentration in the diets was 1 mg/kg (0.001%). This dose had originally been recommended by Dr. Thomas Claus, of Lederle Laboratories and found to be differentially effective in reducing obesity in obesity-prone B6 and obesity-resistant A/J mice (Collins et al, Obes. Res. 43:83-86 5:6S (1997)). The Dz concentration in the diets was 3.2 g/kg (0.32%) was determined to be the maximally effective dose for weight-reduction in dose-response pilot studies.
Glucose, Insulin, and Leptin. Samples for analysis of insulin, glucose, and leptin were collected as previously reported (Surwit et al. Metabolism 44:645-651 (1995), Collins et al., Endocrinology 138:405-413 (1997)) at day 24 (4 days before the diets were changed), at day 32 (4 days after the change) and biweekly thereafter. In all cases, food was removed 8 hours before samples were collected. Glucose was analyzed by the glucose oxidase method (Beckman Glucose Analyzer II). Insulin and leptin concentrations were determined by double antibody radioimmunoassay (Linco Research, St. Louis. Mo.). The insulin assay was based on a rat standard and the leptin assay used a mouse standard.

[2] = Postprandial plasma triglycerides and non-esterified fatty acids; assay type: in vivo, B6 mice; conditions: at termination of the study, HF diet + drug for 4 weeks
Protocol: Animals and Diets. Seventy-five 4-week old B6 male mice were obtained from Jackson Laboratories (Bar Harbor, Me.). The animals were housed 5 per cage in a temperature controlled (22° C.) room with a 12 hour light/dark cycle (lights off at 19:00). The HF and low fat (LF) experimental diets were manufactured by Research Diets (New Brunswick, N.J.), and contain 58% and 11% of calories from fat, respectively. The composition of these diets have been described in detail elsewhere (Surwit et al. Metabolism 44:645-651 (1995)). A group of 60 mice were fed the HF diet for the first four weeks of the study; the remaining 15 mice were fed the LF diet. The mice assigned to the LF diet were maintained on this diet throughout the study as a reference group of lean control mice. At week 4, all HF-fed mice were assigned to 4 groups of 15 mice each. The first group remained on the HF diet throughout the study as the “obese” control group. […] The Dz concentration in the diets was 3.2 g/kg (0.32%) was determined to be the maximally effective dose for weight-reduction in dose-response pilot studies.
Triglycerides and Non-Esterified Fatty Acids. At the termination of the study, a postprandial plasma sample was collected and analyzed for triglyceride and non-esterified fatty acid (NEFA) concentrations using kits from WAKO Diagnostics (Richmond. Va.).

[3] = Fat pad weight and estimate of percent body fat; assay type: in vivo, B6 mice; conditions: wet weight after 4 weeks of drug treatment
Protocol: Animals and Diets. Seventy-five 4-week old B6 male mice were obtained from Jackson Laboratories (Bar Harbor, Me.). The animals were housed 5 per cage in a temperature controlled (22° C.) room with a 12 hour light/dark cycle (lights off at 19:00). The HF and low fat (LF) experimental diets were manufactured by Research Diets (New Brunswick, N.J.), and contain 58% and 11% of calories from fat, respectively. The composition of these diets have been described in detail elsewhere (Surwit et al. Metabolism 44:645-651 (1995)). A group of 60 mice were fed the HF diet for the first four weeks of the study; the remaining 15 mice were fed the LF diet. The mice assigned to the LF diet were maintained on this diet throughout the study as a reference group of lean control mice. At week 4, all HF-fed mice were assigned to 4 groups of 15 mice each. The first group remained on the HF diet throughout the study as the “obese” control group. […] This dose had originally been recommended by Dr. Thomas Claus, of Lederle Laboratories and found to be differentially effective in reducing obesity in obesity-prone B6 and obesity-resistant A/J mice (Collins et al, Obes. Res. 43:83-86 5:6S (1997)). The Dz concentration in the diets was 3.2 g/kg (0.32%) was determined to be the maximally effective dose for weight-reduction in dose-response pilot studies. Tissue Collection. After 4 weeks of drug treatment, a subset of 10 animals from each group was killed. […] Percent Body Fat. The percent body fat was estimated from the weight of the epididymal fat pad. It has been shown that, as a proportion of total body weight, the epididymal fat pad weight is highly correlated with percent body fat (Rogers et al, Brit. J. Nutr. 43:83-86 (1980), Eisen et al, Growth 45:100-107 (1981)).

[4] = system: glucose transport into white adipose tissue and muscle; assay: Glucose transport into adipose and muscle tissues (14C 2-deoxyglucose accumulation); assay type: in vivo, B6 mice; conditions: compared to HF control group
Protocol: as §1
Glucose Transport. Basal glucose transport into white adipose tissue and muscle was assessed following the method of Skillman and Fletcher (Skillman et al, Exp. Clin. Endocrinol. 87:288-298 (1986)) with minor modifications. Five mice from each group were injected i.p. with 50 mg/kg 2-deoxyglucose (20 μCi/kg ^14C 2-deoxyglucose) mixed with 2-deoxyglucose (final specific activity was 66 μCi/mmole). Twenty minutes later the mice were killed by cervical dislocation. […] The samples were neutralized with 1 M HCl and the ^14C content determined.

β3AR = molecular target: T1, β3AR (Mus musculus, UniProt P25962); assay: β3AR-stimulated adenylyl cyclase activity in EWAT plasma membranes from treated animals; assay type: biochemical, B6 mice; conditions: membranes from treated HF-fed animals
T1 construct: from tissue
Protocol: (§2) Tissue Collection. After 4 weeks of drug treatment, a subset of 10 animals from each group was killed. The epididymal white adipose tissue (EWAT), retroperitoneal (RP) fat, interscapular brown adipose tissue (IBAT) fat pads and gastrocnemius muscle were removed, trimmed, washed, and all tissues were flash-frozen in liquid nitrogen and stored at −80° C. for later determination of β3AR, (EWAT) UCP1 expression (IBAT and RP), UCP2 and 3 expression (IBAT) as well as β3AR-stimulated adenylyl cyclase activity (EWAT).
Preparation of plasma membranes and adenylyl cyclase assay. Adipose tissue was isolated from each group of animals. The tissues from 4 mice per group were pooled and minced and then plasma membranes prepared as previously described (Collins et al, Mol. Endocrinol. 8:518-527 (1994)). Adenylyl cyclase activity was measured using established methods, and the cAMP formed was measured by RIA (Harper et al, J. Cyclic Nucleotide Res. 1:207-218 (1975)) using a polyclonal anti-serum to cAMP (Gettys et al, J. Biol. Chem. 266:15949-15955 (1991)). Protein concentrations were determined by the Bradford method (Bradford. Anal. Biochem 72:248-254 (1976)).

β3AR mRNA = assay: Northern blot, β3AR mRNA in EWAT; assay type: in vivo, B6 mice; conditions: normalized to cyclophilin
UCP1 mRNA = assay: Northern blot, UCP1 mRNA in IBAT and RP; assay type: in vivo, B6 mice; conditions: compared to the HF control
UCP3 = UCP3 expression in IBAT; assay type: in vivo; conditions: HF-fed B6 mice
Protocol: as §2
Isolation and Analysis of RNA. Total cellular RNA was prepared using the tissues of 6 mice per group by the cesium chloride gradient method as detailed (Chirgwin et al, Biochemistry 18:5294-5399 (1979)). For Northern blot hybridization, RNA was denatured by the glyoxal procedure, fractionated through 1.2% agarose gels, and blotted onto Biotrans (ICN) nylon membranes (Collins et al, J. Biol. Chem. 263:9067-9070 (1988)). […] A rat cDNA probe for cyclophilin was used as an internal hybridization/quantitation standard. Blots were hybridized and washed as previously described (Collins et al, Mol. Endocrinol. 8:518-527 (1994), (Thomas. Proc. Natl. Acad. Sci. USA 77:5201-5205 (1980)). The intensity of hybridization signals was quantified by PhosphorImager (ImageQuant/Storm) and normalized to the values for cyclophilin.

T1 sequence (P25962 whole entry): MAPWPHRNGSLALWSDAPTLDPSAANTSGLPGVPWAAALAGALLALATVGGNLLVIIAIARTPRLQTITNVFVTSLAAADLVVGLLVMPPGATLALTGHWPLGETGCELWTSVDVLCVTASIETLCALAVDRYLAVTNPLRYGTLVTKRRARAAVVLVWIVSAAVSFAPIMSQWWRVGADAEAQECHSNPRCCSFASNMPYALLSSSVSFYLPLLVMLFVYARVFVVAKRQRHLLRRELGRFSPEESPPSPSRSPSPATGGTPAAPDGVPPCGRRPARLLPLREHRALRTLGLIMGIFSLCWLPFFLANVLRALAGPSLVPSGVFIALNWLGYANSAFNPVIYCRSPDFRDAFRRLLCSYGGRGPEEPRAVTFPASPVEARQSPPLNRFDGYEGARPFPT

Row | Compound | Fasting plasma glucose ([1]; compared to pretreatment) | NEFA [2] | Epididymal Fat Pad Weight [3] | Retroperitoneal Fat Pad Weight [3] | Glucose transport into EWAT [4] | Glucose transport into RP ([4]; ANOVA trend p=0.07) | Adenylyl cyclase activity in response to CL in EWAT plasma membranes (β3AR) | β3AR mRNA levels in EWAT (β3AR mRNA) | UCP1 mRNA levels in IBAT (UCP1 mRNA) | Fasting plasma insulin ([1]; end of / throughout the study, compared to pretreatment) | Leptin ([1]; plasma, at the conclusion of the study, HF diet + drug for 4 weeks) | UCP3 expression in IBAT (UCP3)
1 | C[C@H](Cc1ccc2c(c1)OC(C(=O)[O-])(C(=O)[O-])O2)NC[C@H](O)c1cccc(Cl)c1.[Na+].[Na+] [CL, disodium (R,R)-5-[2[[2-(3-chlorophenyl)-2-hydroxyethyl]-amino]propyl]-1,3-benzodioxole-2,2-dicarboxylate] | returned to the pretreatment values | 0.69 +/− 0.04^b mEq/L | 0.943 +/− 0.129^b grams | 0.200 +/− 0.024^b grams | improved glucose transport into EWAT | enhanced glucose transport | a general decrease in adenylyl cyclase activity | failed to restore β3AR expression or function | greater increase in UCP1 expression | – | – | –
2 | CC1=NS(=O)(=O)c2cc(Cl)ccc2N1 [Dz, diazoxide] | remained lower than pretreatment levels throughout the study | 0.82 +/− 0.08^b mEq/L | 0.691 +/− 0.083^b,c grams | 0.123 +/− 0.014^b,c grams | did not reach a statistically significant level | – | restored the efficacy of the β3AR to stimulate adenylyl cyclase | levels comparable to the LF fed controls | greater increase in UCP1 expression | remained significantly below pretreatment levels throughout the study | 4.2 +/− 0.8^c ng/ml | significant increase in UCP3 expression in IBAT
